Test results as given in patent US20160257697A1, “THIOPHENE-SUBSTITUTED TETRACYCLIC COMPOUNDS AND METHODS OFUSE THEREOF FOR THE TREATMENT OF VIRAL DISEASES” (priority 2013, published 2016).
Read-outs that look alike come from different tables or passages of the source.

Legend:
Experiment in all cases: microbe, parasite or virus in culture
Assay type in all cases: cell-based, Hepatitis C virus (HCV)
Details in all cases: Replicon Assay A
HCV replicon 1AY93H = test system: HCV replicon 1AY93H
Outline: (§1)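 Replicon cells were seeded at 2000 cells/well with test compound in 0.5% DMSO and 5% FBS, then harvested on day 3. Replicon RNA was measured by multiplex TaqMan real-time RT-PCR, using cyclophilin RNA as the endogenous control and quantified against standard curves of HCV replicon total RNA.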

HCV replicon 1A = test system: HCV replicon 1A
Outline: as §1

HCV replicon 2B = test system: HCV replicon 2B
Outline: as §1

[1] = read-out: 1A Y93H IC50, replicon 1AY93H
[2] = read-out: 1A Y93H IC50, HCV replicon 1A Y93H
[3] = read-out: 2B IC50, HCV replicon 2B
[4] = Hepatitis C virus, read-out: 1A Y93H IC50, HCV replicon 1A Y93H
[5] = Hepatitis C virus, HCV replicon 1A
[6] = Hepatitis C virus, read-out: 2B IC50, HCV replicon 2B

Row | Compound | IC50 (HCV replicon 1AY93H; [1]) [pM] | IC50 (HCV replicon 2B; read-out: 2B IC50, replicon 2B) [pM] | IC50 (HCV replicon 1AY93H; [2]) [pM] | IC50 (HCV replicon 1A; HCV replicon 1A) [pM] | IC50 (HCV replicon 2B; [3]) [pM] | IC50 (HCV replicon 1A; replicon 1A) [pM] | other results
1 | COC(=O)N[C@H](C(=O)N1CCC[C@H]1c1ncc(-c2ccc3c(c2)OC(c2ccc(C4CC4)s2)n2c-3c(C)c3cc(-c4cnc([C@@H]5CCCN5C(=O)[C@@H](NC(=O)OC)C(C)C)[nH]4)ccc32)[nH]1)C(C)C (single isomer, unassigned) [Compound 21] | 220 | 260 | – | – | – | – | IC50 (HCV replicon 1A; Hepatitis C virus, replicon 1A): 1.9 pM
2 | COC(=O)N[C@H](C(=O)N1C[C@H](F)C[C@H]1c1ncc(-c2ccc3c(c2)OC(c2ccc(C)s2)n2c-3cc3cc(-c4cnc([C@@H]5C[C@H]6C[C@H]6N5C(=O)[C@@H](NC(=O)OC)C(C)C)[nH]4)ccc32)[nH]1)C(C)C (single isomer, unassigned) [Compound 708] | – | – | 42 | 18 | 3050 | – | –
3 | CCc1ccc(C2Oc3cc(-c4cnc([C@@H]5CCCN5C(=O)[C@@H](NC(=O)OC)C(C)C)[nH]4)cc(F)c3-c3cc4cc(-c5cnc([C@@H]6CCCN6C(=O)C(NC(=O)OC)C6CCOC(C)(C)C6)[nH]5)ccc4n32)s1 (single isomer, unassigned) [Compound 152] | 480 | 530 | – | – | – | 1.6 | –
4 | COC(=O)N[C@H](C(=O)N1CCC[C@H]1c1nc(-c2ccc3c(c2)OC(c2ccc(C)s2)n2c-3cc3cc(-c4c[nH]c([C@@H]5NCCN5C(=O)[C@@H](NC(=O)OC)C(C)C)n4)ccc32)c[nH]1)C(C)C (single isomer, unassigned) [Compound 700] | – | – | 1170 | 15 | 390 | – | –
5 | COC(=O)N[C@H](C(=O)N1CCC[C@H]1c1nc(-c2ccc3c(c2)OC(c2cc4sccc4s2)n2c-3cc3cc(-c4c[nH]c([C@@H]5C[C@H]6C[C@H]6N5C(=O)[C@@H](NC(=O)OC)C5CCOCC5)n4)ccc32)c[nH]1)C(C)C (mixture of isomers) [Compound 726] | – | – | – | – | – | – | IC50 (HCV replicon 1AY93H; [4]): 47 pM; IC50 (HCV replicon 1A; [5]): 6.3 pM; IC50 (HCV replicon 2B; [6]): 160 pM
6 | COC(=O)NC(C(=O)N1CCC[C@H]1c1ncc(-c2ccc3c(c2)cc2n3C(c3ccc(C4CC4)s3)Oc3cc(-c4cnc([C@@H]5CCCN5C(=O)[C@@H](NC(=O)OC)C(C)C)[nH]4)cc(F)c3-2)[nH]1)C1CCOC(C)(C)C1 (single isomer, unassigned) [Compound 222] | 240 | 170 | – | – | – | 2 | –
7 | COC(=O)NC(C(=O)N1CCC[C@H]1c1ncc(-c2cc(F)c3c(c2)OC(c2ccc(C4CCC4)s2)n2c-3cc3cc(-c4cnc([C@@H]5CCCN5C(=O)[C@@H](NC(=O)OC)C5CCOCC5)[nH]4)ccc32)[nH]1)C(C)(C)F (single isomer, unassigned) [Compound 249] | 1180 | 5040 | – | – | – | 22.8 | –
8 | COC(=O)NC(C(=O)N1CCC[C@H]1c1ncc(-c2ccc3c(c2)cc2n3C(c3ccc(C4CC4)s3)Oc3cc(-c4cnc([C@@H]5CCCN5C(=O)[C@@H](NC(=O)OC)C(C)C)[nH]4)cc(F)c3-2)[nH]1)C1CN(C(=O)C2CC2)C1 (single isomer, unassigned) [Compound 269] | 280 | 250 | – | – | – | 2.6 | –
9 | COC(=O)NC(C(=O)N1CCC[C@H]1c1ncc(-c2ccc3c(c2)cc2n3C(c3ccc(C4CC4)s3)Oc3cc(-c4cnc([C@@H]5CCCN5C(=O)[C@@H](NC(=O)OC)C(C)C)[nH]4)cc(F)c3-2)[nH]1)C1C[C@H](C)O[C@@H](C)C1 (single isomer, unassigned) [Compound 404] | 1250 | 1670 | – | – | – | 2.2 | –
10 | CCc1ccc(C2Oc3cc(-c4cnc([C@@H]5CCCN5C(=O)C(NC(=O)OC)C5CCOC(C)(C)C5)[nH]4)cc(F)c3-c3cc4cc(-c5cnc([C@@H]6CCCN6C(=O)[C@@H](NC(=O)OC)C(C)C)[nH]5)ccc4n32)s1 (single isomer, unassigned) [Compound 158] | 1070 | 430 | – | – | – | 3.3 | –
11 | COC(=O)NC(C(=O)N1CCC[C@H]1c1ncc(-c2ccc3c(c2)cc2n3C(c3cc(C)c(C)s3)Oc3cc(-c4cnc([C@@H]5CCCN5C(=O)[C@@H](NC(=O)OC)C5CCOCC5)[nH]4)cc(F)c3-2)[nH]1)C(C)(C)F (single isomer, unassigned) [Compound 129] | 800 | 1170 | – | – | – | 1 | –
12 | COC(=O)N[C@H](C(=O)N1CCC[C@H]1c1ncc(-c2ccc3c(c2)OC(c2cc4sccc4s2)n2c-3cc3cc(-c4c[nH]c([C@@H]5C[C@H]6C[C@H]6N5C(=O)[C@@H](NC(=O)OC)C(C)C)n4)ccc32)[nH]1)C(C)C (single isomer, unassigned) [Compound 718] | – | – | 110 | 2.4 | 820 | – | –
13 | COC(=O)N[C@H](C(=O)N1C[C@H](F)C[C@H]1c1ncc(-c2ccc3c(c2)cc2n3C(c3cc4ccccc4s3)Oc3cc(-c4cnc([C@@H]5CCCN5C(=O)[C@@H](NC(=O)OC)C5CCOCC5)[nH]4)ccc3-2)[nH]1)C(C)C (single isomer, unassigned) [Compound 624] | – | – | 494 | 2.1 | 418 | – | –
14 | COC(=O)NC(C(=O)N1CCC[C@H]1c1ncc(-c2cc(F)c3c(c2)OC(c2ccc(C4CC4)s2)n2c-3cc3cc(-c4cnc([C@@H]5CCCN5C(=O)[C@@H](NC(=O)OC)C(C)C)[nH]4)ccc32)[nH]1)C1CCOC(C)(C)C1 (single isomer, unassigned) [Compound 217] | 180 | 390 | – | – | – | 3 | –
15 | COC(=O)N[C@H](C(=O)N1CCC[C@H]1c1ncc(-c2ccc3c(c2)OC(c2cc(C)c(C)s2)n2c-3cc3cc(-c4cnc([C@@H]5C[C@H]6C[C@H]6N5C(=O)[C@@H](NC(=O)OC)C(C)C)[nH]4)ccc32)[nH]1)C(C)C (single isomer, unassigned) [Compound 502] | – | – | 575 | 12.1 | 57.5 | – | –
16 | CCN(CC)[C@@H](C(=O)N1CCC[C@H]1c1ncc(-c2ccc3c(c2)cc2n3C(c3cc4ccccc4s3)Oc3cc(-c4cnc([C@@H]5C[C@@H](F)CN5C(=O)[C@@H](c5ccccc5)N(CC)CC)[nH]4)ccc3-2)[nH]1)c1ccccc1 (mixture of isomers) [Compound 808] | – | – | – | – | – | – | IC50 (HCV replicon 1AY93H; [4]): 1200 pM; IC50 (HCV replicon 1A; [5]): 26 pM; IC50 (HCV replicon 2B; [6]): 320 pM
17 | COC(=O)N[C@H](C(=O)N1CCC[C@H]1c1ncc(-c2cc(F)c3c(c2)OC(c2scc4c2OCCO4)n2c-3cc3cc(-c4cnc([C@@H]5CCCN5C(=O)[C@@H](NC(=O)OC)C(C)C)[nH]4)ccc32)[nH]1)C(C)C (single isomer, unassigned) [Compound 524] | – | – | 14500 | 7.66 | 4640 | – | –
18 | CCc1ccc(C2Oc3cc(-c4cnc([C@@H]5CCCN5C(=O)[C@@H](NC(=O)OC)C(C)C)[nH]4)cc(F)c3-c3cc4cc(-c5cnc([C@@H]6C[C@@H](F)CN6C(=O)C(NC(=O)OC)C6CCOC(C)(C)C6)[nH]5)ccc4n32)s1 (single isomer, unassigned) [Compound 260] | 47 | 11700 | – | – | – | 1 | –
19 | COC(=O)N[C@H](C(=O)N1C[C@H](F)C[C@H]1c1ncc(-c2ccc3c(c2)cc2n3C(c3cc4ccccc4s3)Oc3cc(-c4cnc([C@@H]5CCCN5C(=O)[C@@H](NC(=O)OC)C5CCOCC5)[nH]4)ccc3-2)[nH]1)C(C)C (single isomer, unassigned) [Compound 623] | – | – | 21.3 | – | 345 | – | IC50 (HCV replicon 1A; [5]): 2.4 pM
20 | COC(=O)N[C@H](C(=O)N1CCC[C@H]1c1ncc(-c2ccc3c(c2)OC(c2cc(C)c(C)s2)n2c-3cc3cc(-c4cnc([C@@H]5C[C@H]6C[C@H]6N5C(=O)[C@@H](NC(=O)OC)C(C)C)[nH]4)ccc32)[nH]1)C(C)C (single isomer, unassigned) [Compound 501] | – | – | 4350 | 24 | 8370 | – | –
21 | COC(=O)N[C@H](C(=O)N1CCC[C@H]1c1nc(-c2ccc3c(c2)OC(c2ccc(C)s2)n2c-3cc3cc(-c4c[nH]c([C@@H]5NCCN5C(=O)[C@@H](NC(=O)OC)C(C)C)n4)ccc32)c[nH]1)C(C)C (single isomer, unassigned) [Compound 702] | – | – | 3850 | 7.4 | 3980 | – | –
22 | COC(=O)NC(C(=O)N1CCC[C@H]1c1ncc(-c2ccc3c(c2)cc2n3C(c3ccc(C(C)C)s3)Oc3cc(-c4cnc([C@@H]5CCCN5C(=O)[C@@H](NC(=O)OC)C(C)C)[nH]4)cc(C)c3-2)[nH]1)C1C[C@@H](C)O[C@@H](C)C1 (single isomer, unassigned) [Compound 365] | 380 | 154 | – | – | – | – | IC50 (HCV replicon 1A; Hepatitis C virus, replicon 1A): 2.7 pM
23 | COC(=O)N[C@H](C(=O)N1CCC[C@H]1c1ncc(-c2cc(F)c3c(c2)OC(c2cc(C)sc2C)n2c-3cc3cc(-c4cnc([C@@H]5CCCN5C(=O)[C@@H](NC(=O)OC)C(C)C)[nH]4)ccc32)[nH]1)C(C)C (single isomer, unassigned) [Compound 320] | 5500 | 5100 | – | – | – | 1.1 | –
24 | COC(=O)N[C@H](C(=O)N1CCC[C@H]1c1ncc(-c2ccc3c(c2)OC(c2cc4sccc4s2)n2c-3cc3cc(-c4c[nH]c([C@@H]5C[C@H]6C[C@H]6N5C(=O)[C@@H](NC(=O)OC)C(C)C)n4)ccc32)[nH]1)C(C)C (single isomer, unassigned) [Compound 717] | – | – | 200 | 24 | 1160 | – | –
25 | COC(=O)NC(C(=O)N1CCC[C@H]1c1ncc(-c2ccc3c(c2)cc2n3C(c3ccc(C4CC4)s3)Oc3cc(-c4cnc([C@@H]5CCCN5C(=O)[C@@H](NC(=O)OC)C(C)C)[nH]4)cc(F)c3-2)[nH]1)C1CCOC(C)(C)C1 (single isomer, unassigned) [Compound 220] | 520 | 930 | – | – | – | 2.1 | –
